One data set relates to locomotor activity. Description: SmartCage locomotor activity. The conditions noted are these: 24 hr.
The nature of data set [1]: Stability in human plasma with protease inhibitor cocktail and individual amidase/esterase inhibitors. In kind it is in vitro ADME. The protocol:
Plasma Preparation. Whole blood was centrifuged at 1174×g for 30 min. Aliquots of the supernatant were then transferred to 5 mL centrifuge tubes.
Stability of COMPOUND A in Human and Rat Plasma (circulating enzymes) in the Presence of Protease Inhibitor Cocktail. COMPOUND A was added to plasma with and without protease inhibitor cocktail and incubated to study inhibition of test article (COMPOUND A) degradation. […] Plasma with and without inhibitor cocktail was aliquoted into 1.5 mL tubes to a volume of 950 μL, then preincubated for 15 min. An aliquot (50 μL) of test article stock solution was added to plasma with and without inhibitor and tubes were vortexed then incubated at 37° C. Degradation began with the addition of test article. Aliquots (50 μL) were taken at 0, 15, 30, 60, and 120 min after being vortexed and were quenched in 150 μL acetonitrile/0.1% formic acid solution and briefly vortexed then immediately frozen at −80° C. Stability was determined by measuring loss of parent compound using LC/MS/MS methods. Each exposure condition and time point were done in triplicate.
Stability of COMPOUND A in Human and Rat Plasma (circulating enzymes) in the Presence of Individual Protease Inhibitors. In addition to using a cocktail of protease inhibitors, individual inhibitors were used in plasma. […] Stability was determined by measuring loss of parent compound using LC/MS/MS methods. […]

Data set [2] in a line: Preclinical PK after intraperitoneal dosing of COMPOUND D, COMPOUND B and viloxazine. In kind it is in vivo, mouse.
Setting [3] is: COMPOUND B IP 10.948 mg/kg, 24.0 h, individual mice.
The mark [4] stands for this setting: COMPOUND B IP 10.948 mg/kg, individual mice, 10.948 mg/kg.
[5] abbreviates: COMPOUND D IP 10.978 mg/kg, individual mice, 10.978 mg/kg.

This is an account of results in patent US20240343699A1, “DERIVATIVES OF SUBSTITUTED MORPHOLINES AND USES THEREOF” (Supernus Pharmaceuticals, Inc., priority 2023, published 2024).

The structures appear in SMILES notation. Values joined by “and” are separate entries in the source; they are usually repeats but may differ in a detail not shown here. Equal entries are not always repeated. Where two headings read alike, the source gives them in different places.

Description for locomotor activity: Animals. […] Upon arrival at the facility, animals were group-housed (5/cage) with access to food and water ad libitum. Animals were maintained on a 12/12-hour light/dark cycle in a temperature—(22±2° C.) and humidity-(approx.35-50%) controlled room. Animals were numbered consecutively by tail ID marker in each home cage.
Locomotor Activity Monitoring. […] After the first day, animals were administered one of four doses (PO) of test article and monitored for the next 24 hours. The animal's activity during the monitored hours was quantified using the parameters of distance travelled, time active, and rearing activity.
SmartCage. After a washout period of at least 24 hours following a TST evaluation during which the animals were group-housed (5/cage), individual mice were placed into a freshly prepared home cage and their activity recorded simultaneously using the SmartCage™ system and a video camera placed above the SmartCage™ system.
Active wakefulness was defined as actively moving, rearing, and exploratory behaviors. […] Likewise, distance traveled in centimeters was obtained from the lower horizontal IR and calculated taking into account the animal's path. […] The calculated distance traveled (at any given time period, called ‘block’, or ‘total measuring period’) and speed were the two main parameters for locomotor activity. […]

Regarding `CCOc1ccccc1OC[C@@H]1CN(C(=O)OC(C)OC(=O)[C@@H](N)C(C)C)CCO1` (stereo partly drawn) [COMPOUND A], in the data set with locomotor activity (COMPOUND A 10, 30 and 90 mg/kg PO), the “home cage activity (activity, rearing, distance, velocity)” value is reported as “no significant effect on daytime or nighttime activity measurements”. Also, the “degradation accounted for by esterase and amidase enzymes” value in data set [1] (fresh human and rat plasma with amidase and esterase inhibitors) is given as about 100%. Moreover, the “Human proteolytic activity relative to rat proteolytic activity” value in data set [1] (plasma, 60 min incubation) is “about 3 fold”.
For the compound `CCOc1ccccc1OC[C@@H]1CN(C(=O)OC(OC(=O)[C@H](N)C(C)C)C(C)C)CCO1` (stereo partly drawn) [COMPOUND C], the “home cage activity (activity, rearing, distance, velocity)” value in the data set with locomotor activity (COMPOUND C 10, 30, 60 and 90 mg/kg PO) is given as “no significant effect on daytime or nighttime activity measurements”.
As usually defined, the Tmax is the time at which the peak concentration occurs. A word on the Cmax: it is the maximum level reached in the sampled fluid or tissue. Take `CCOc1ccccc1OC[C@@H]1CN(C(=O)OC(OC(=O)[C@@H](N)C(C)C)C(C)C)CCO1` (stereo partly drawn) [COMPOUND B]: the “Plasma concentration of COMPOUND B” value in data set [2] (COMPOUND B IP 10.948 mg/kg, 0.250 h, individual mice, 10.948 mg/kg) was “BQL and 17.7 ng/mL”; in data set [2] (COMPOUND B IP 10.948 mg/kg, 0.500 h, individual mice, 10.948 mg/kg), 4.88 ng/mL and 8.44 ng/mL; in data set [2] (COMPOUND B IP 10.948 mg/kg, 1.00 h, individual mice), “BQL”; in data set [2] (COMPOUND B IP 10.948 mg/kg, 2.00 h, individual mice), “BQL”; in data set [2] (COMPOUND B IP 10.948 mg/kg, 4.00 h, individual mice), “BQL”; in data set [2] (COMPOUND B IP 10.948 mg/kg, 8.00 h, individual mice) it was “BQL”. Further, the “Plasma concentration of COMPOUND B” value in data set [2] (setting [3]) is given as “BQL”. The “Plasma concentration of Viloxazine” value was “BQL” in data set [2] (COMPOUND B IP 10.948 mg/kg, 4.00 h, individual mice, 10.948 mg/kg); “BQL” in data set [2] (COMPOUND B IP 10.948 mg/kg, 8.00 h, individual mice, 10.948 mg/kg); “BQL” in data set [2] (setting [3]). Further, the “Tlast, plasma COMPOUND B” value is recorded as 0.500 h in data set [2] (COMPOUND B IP 10.948 mg/kg, individual mice) and 0.500 h in data set [2] (COMPOUND B IP 10.948 mg/kg, mean). Also, the “AUC0-last, plasma COMPOUND B” value in data set [2] (setting [4]) is 6.48 ng·h/mL and 1.22 ng·h/mL and 5.34 ng·h/mL. Besides, the “Cmax, plasma COMPOUND B” value in data set [2] (setting [4]) was 25.4 ng/mL and 4.88 ng/mL and 17.7 ng/mL. The “MRT0-last, plasma COMPOUND B” value in data set [2] (setting [4]) was 30 min and 18.8 min. Besides, the “Tmax, plasma COMPOUND B” value in data set [2] (setting [4]) was 30 min and 15 min. Moreover, the concentration at 0.25 h in data set [2] (mouse, plasma, ip, 10.948 mg/kg, COMPOUND B IP 10.948 mg/kg, 0.250 h, individual mice, read-out: Plasma concentration of COMPOUND B) is 25.4 ng/mL; in data set [2] (mouse, plasma, ip, 10.948 mg/kg, COMPOUND B IP 10.948 mg/kg, 0.250 h, mean, read-out: Plasma concentration of COMPOUND B), 21.6 ng/mL. Also, the concentration at 0.5 h in data set [2] (mouse, plasma, ip, 10.948 mg/kg, COMPOUND B IP 10.948 mg/kg, 0.500 h, individual mice, read-out: Plasma concentration of COMPOUND B) turned out to be 5.75 ng/mL; in data set [2] (mouse, plasma, ip, 10.948 mg/kg, COMPOUND B IP 10.948 mg/kg, 0.500 h, mean, read-out: Plasma concentration of COMPOUND B), 6.36 ng/mL. In addition, the MRT last worked out at 17.9 min in data set [2] (mouse, plasma, ip, 10.948 mg/kg, COMPOUND B IP 10.948 mg/kg, individual mice, read-out: MRT0-last, plasma COMPOUND B) and 22.3 min in data set [2] (mouse, plasma, ip, 10.948 mg/kg, COMPOUND B IP 10.948 mg/kg, mean, read-out: MRT0-last, plasma COMPOUND B). For the same compound, the Tmax was found to be 15 min in data set [2] (mouse, plasma, ip, 10.948 mg/kg, COMPOUND B IP 10.948 mg/kg, individual mice, read-out: Tmax, plasma COMPOUND B) and 20 min in data set [2] (mouse, plasma, ip, 10.948 mg/kg, COMPOUND B IP 10.948 mg/kg, mean, read-out: Tmax, plasma COMPOUND B). Also, in data set [2] (mouse, plasma, ip, 10.948 mg/kg, COMPOUND B IP 10.948 mg/kg, mean, read-out: AUC0-last, plasma COMPOUND B), the AUC(0-t) stood at 4.35 ng·h/mL. Further, the Cmax in data set [2] (mouse, plasma, ip, 10.948 mg/kg, COMPOUND B IP 10.948 mg/kg, mean, read-out: Cmax, plasma COMPOUND B) amounted to 16 ng/mL.
In the case of `CCOc1ccccc1OCC1CN(C(=O)OC(C)OC(=O)[C@H](N)C(C)C)CCO1` (stereo partly drawn) [COMPOUND D], the concentration at 0.25 h in data set [2] (CD-1, mouse, plasma, ip, 10.978 mg/kg, COMPOUND D IP 10.978 mg/kg, 0.250 h, individual mice, read-out: Plasma concentration of COMPOUND D) came out at 3.44 ng/mL. Also, the concentration at 0.5 h in data set [2] (CD-1, mouse, plasma, ip, 10.978 mg/kg, COMPOUND D IP 10.978 mg/kg, 0.500 h, individual mice, read-out: Plasma concentration of COMPOUND D) worked out at 1.12 ng/mL. In addition, the concentration at 1 h in data set [2] (CD-1, mouse, plasma, ip, 10.978 mg/kg, COMPOUND D IP 10.978 mg/kg, 1.00 h, individual mice) came to 5.74 ng/mL. The concentration at 24 h in data set [2] (CD-1, mouse, plasma, ip, 10.978 mg/kg, COMPOUND D IP 10.978 mg/kg, 24.0 h, individual mice) stood at 3.48 ng/mL. Besides, the Cmax was 5.74 ng/mL in data set [2] (CD-1, mouse, plasma, ip, 10.978 mg/kg, COMPOUND D IP 10.978 mg/kg, individual mice, read-out: Cmax, plasma COMPOUND D) and 4.61 ng/mL in data set [2] (CD-1, mouse, plasma, ip, 10.978 mg/kg, COMPOUND D IP 10.978 mg/kg, mean, read-out: Cmax, plasma COMPOUND D). In addition, in data set [2] (CD-1, mouse, plasma, ip, 10.978 mg/kg, COMPOUND D IP 10.978 mg/kg, mean, read-out: AUC0-last, plasma COMPOUND D), the AUC(0-t) turned out to be 42.3 ng·h/mL. In addition, in data set [2] (CD-1, mouse, plasma, ip, 10.978 mg/kg, COMPOUND D IP 10.978 mg/kg, mean, read-out: MRT0-last, plasma COMPOUND D), the MRT last is 390 min. The Tmax in data set [2] (CD-1, mouse, plasma, ip, 10.978 mg/kg, COMPOUND D IP 10.978 mg/kg, mean, read-out: Tmax, plasma COMPOUND D) is 750 min. Besides, the “Plasma concentration of COMPOUND D” value in data set [2] (COMPOUND D IP 10.978 mg/kg, 0.250 h, individual mice, 10.978 mg/kg) was “BQL”; in data set [2] (COMPOUND D IP 10.978 mg/kg, 0.500 h, individual mice, 10.978 mg/kg), “BQL”; in data set [2] (COMPOUND D IP 10.978 mg/kg, 1.00 h, individual mice, 10.978 mg/kg), “BQL”; in data set [2] (COMPOUND D IP 10.978 mg/kg, 2.00 h, individual mice) it was “BQL”; in data set [2] (COMPOUND D IP 10.978 mg/kg, 4.00 h, individual mice), “BQL”; in data set [2] (COMPOUND D IP 10.978 mg/kg, 8.00 h, individual mice) it was “BQL”. In addition, the “Plasma concentration of COMPOUND D” value in data set [2] (COMPOUND D IP 10.978 mg/kg, 24.0 h, individual mice, 10.978 mg/kg) was “BQL”. In addition, the “Plasma concentration of Viloxazine” value in data set [2] (COMPOUND D IP 10.978 mg/kg, 8.00 h, individual mice, 10.978 mg/kg) is given as “BQL”; in data set [2] (COMPOUND D IP 10.978 mg/kg, 24.0 h, individual mice) it was “BQL”. For the same compound, in data set [2] (setting [5]), the “AUC0-last, plasma COMPOUND D” value is 2.00 ng·h/mL and 82.6 ng·h/mL. Also, the “Cmax, plasma COMPOUND D” value in data set [2] (setting [5]) was 3.48 ng/mL. For the same compound, in data set [2] (setting [5]), the “MRT0-last, plasma COMPOUND D” value was 51.6 min and 726 min. Also, the “Tlast, plasma COMPOUND D” value was 1.00 h and 24.0 h in data set [2] (setting [5]); 12.5 h in data set [2] (COMPOUND D IP 10.978 mg/kg, mean). In addition, the “Tmax, plasma COMPOUND D” value in data set [2] (setting [5]) was 60 min and 1440 min.
